Results reported in patent US20100113460A1, “Organic Compounds” (Givaudan SA, priority 2007, published 2010).
Where two headings read alike, the source gives them in different places. Each block holds one compound with its values, some of them ahead of it.

Legend:
CYP2A13 = target: T1, CYP2A13 (Homo sapiens, UniProt Q16696); experiment: CYP2A13 inhibition, coumarin to 7-hydroxy-coumarin (Umbelliferone) fluorescence assay in microsomes
T1 sequence (Q16696 1-494): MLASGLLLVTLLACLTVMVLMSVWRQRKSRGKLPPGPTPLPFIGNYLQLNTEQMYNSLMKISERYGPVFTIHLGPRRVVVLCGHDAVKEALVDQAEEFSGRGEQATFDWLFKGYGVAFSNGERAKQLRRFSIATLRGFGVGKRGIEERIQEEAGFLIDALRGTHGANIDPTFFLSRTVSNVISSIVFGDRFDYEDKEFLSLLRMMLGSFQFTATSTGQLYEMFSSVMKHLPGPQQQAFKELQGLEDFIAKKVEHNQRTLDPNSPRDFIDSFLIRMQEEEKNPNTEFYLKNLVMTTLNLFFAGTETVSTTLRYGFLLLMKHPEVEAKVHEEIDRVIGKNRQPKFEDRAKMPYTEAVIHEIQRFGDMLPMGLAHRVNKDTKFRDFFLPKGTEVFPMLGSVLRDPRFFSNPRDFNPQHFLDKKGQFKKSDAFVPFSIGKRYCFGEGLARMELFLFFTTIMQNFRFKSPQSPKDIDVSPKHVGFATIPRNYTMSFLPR
Method: Compounds that inhibit the activity of CYP2A13 are identified by using a standard reaction established for the enzyme. A known substrate is coumarin, and the product of the enzymatic reaction is 7-hydroxy-coumarin (Umbelliferone) which is strongly fluorescent. When a compound is added to the standard reaction and the formation of Umbelliferone is decreased, the compound is identified as an inhibitor, which can also be a competitive substrate of the enzyme. The compound is used at various concentrations and the concentration-dependent decrease in Umbelliferone formation allows to determine the concentration where the activity of the enzyme is reduced to the 50% level (IC50 value).
A test compound (details see Table 1) was incubated with CYP2A13 in the presence of a cytochrome P450 reductase. CYP2A13 and P450 reductase were employed in form of microsomes. […] Preferably, the two enzymes are coexpressed in the same insect cells and microsomes prepared which contain both enzymes. […] An MOI of 4 for recombinant CYP2A13 baculovirus combined with an MOI of 3.5 for recombinant P450 reductase baculovirus routinely produced microsomes with considerable activity.
Microsomes were used which contained 7 pmoles CYP2A13. […] The concentration of the standard substrate coumarin was 0.006 mM. […] The mixture was incubated for 10 min at 37° C. prior to the initiation of the enzymatic reaction by the addition of 0.005 ml of a solution of 50 mM NADPH in water. The final total volume was 0.2 ml, which is suitable for microtiter plate measurements. The samples were incubated for 60 min at 37° C. After 60 min, the enzymatic reaction was stopped by the addition of 0.02 ml cold 50% trichloroacetic acid (TCA) and incubated at 4° C. for 15 min. 0.005 ml of a solution of 50 mM NADPH in water was added to the control reaction which corresponds to the reaction without test compound and without NADPH, and as a consequence, no Umbelliferone was formed. Denatured proteins and other insoluble parts were separated by centrifugation (10 min, 560×g, room-temperature).
The samples were analysed spectrofluorometrically which allows to detect the formation of Umbelliferone as the enzymatic product of coumarin at an excitation wavelength of 340 nm and an emission wavelength of 480 nm.

Human CYP2B6 = target: T2, Human CYP2B6 (Homo sapiens, UniProt P20813); experiment: Inhibition of human CYP2B6, 7-ethoxy-4-trifluoromethyl-coumarin fluorescence assay in microsomes; format: biochemical; conditions: substrate 7-ethoxy-4-trifluoromethyl-coumarin 6 μM, 40 min at 37° C.; read-out: CYP2B6 inhibitor activity IC50
T2 construct: made in house; host or cells: Sf9 insect cells, recombinant baculoviruses (coexpression)
T2 sequence (P20813 1-491): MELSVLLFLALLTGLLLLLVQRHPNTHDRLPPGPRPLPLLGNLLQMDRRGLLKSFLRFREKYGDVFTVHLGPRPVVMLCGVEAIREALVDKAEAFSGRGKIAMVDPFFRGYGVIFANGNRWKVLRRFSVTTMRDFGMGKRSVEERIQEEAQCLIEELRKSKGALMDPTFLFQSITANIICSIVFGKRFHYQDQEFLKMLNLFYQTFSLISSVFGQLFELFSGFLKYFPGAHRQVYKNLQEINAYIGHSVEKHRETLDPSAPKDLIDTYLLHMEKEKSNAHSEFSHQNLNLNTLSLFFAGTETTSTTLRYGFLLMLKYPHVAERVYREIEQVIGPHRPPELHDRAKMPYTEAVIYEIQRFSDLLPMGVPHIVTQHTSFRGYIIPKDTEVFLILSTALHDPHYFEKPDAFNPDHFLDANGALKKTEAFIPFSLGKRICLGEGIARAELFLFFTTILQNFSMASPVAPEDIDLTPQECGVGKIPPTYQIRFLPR
Method: Test compounds that inhibit the activity of CYP2B6 are identified by using the same principle as described in Example 28, first paragraph.
A test compound (details see Table 3) was incubated with CYP2B6 in the presence of a cytochrome P450 reductase. CYP2B6 and P450 reductase are produced using recombinant baculoviruses and co-expressing the two proteins in Sf9 insect cells as described in Example 28. Alternatively, microsomes containing CYP2B6 and the reductase are commercially available (BD Biosciences Gentest, USA). Microsomes were used which contained 1.5 pmoles CYP2B6. Potassium phosphate buffer final concentration was 100 mM, (1M stock, pH 7.4). […] The concentration of the standard substrate 7-ethoxy-4-trifluoromethyl-coumarin was 6 μM. […] The samples were incubated for 40 min at 37° C.

CYP2A6 = target: T3, CYP2A6 (Homo sapiens, UniProt P11509); experiment: CYP2A6 inhibition, coumarin to Umbelliferone fluorescence assay in microsomes; format: biochemical; conditions: substrate coumarin 0.003 mM, 60 min at 37° C.; read-out: CYP2A6 inhibitor activity IC50
T3 construct: purchased BD Biosciences Gentest, USA
T3 sequence (P11509 1-494): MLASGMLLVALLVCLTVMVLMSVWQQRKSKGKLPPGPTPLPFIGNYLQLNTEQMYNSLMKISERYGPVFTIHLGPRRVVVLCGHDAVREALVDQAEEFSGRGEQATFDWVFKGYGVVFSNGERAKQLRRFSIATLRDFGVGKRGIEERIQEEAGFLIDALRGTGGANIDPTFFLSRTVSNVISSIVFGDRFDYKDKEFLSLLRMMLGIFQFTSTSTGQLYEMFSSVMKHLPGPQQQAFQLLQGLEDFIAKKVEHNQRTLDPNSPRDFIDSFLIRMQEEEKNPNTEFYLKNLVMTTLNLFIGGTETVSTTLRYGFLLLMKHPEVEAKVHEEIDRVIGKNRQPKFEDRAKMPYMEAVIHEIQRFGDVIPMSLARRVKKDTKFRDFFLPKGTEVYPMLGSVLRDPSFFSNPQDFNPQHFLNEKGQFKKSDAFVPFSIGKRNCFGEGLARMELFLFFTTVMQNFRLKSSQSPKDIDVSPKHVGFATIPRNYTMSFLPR
Method: Test compounds that inhibit the activity of CYP2A6 are identified by using the same principle as described in Example 28, first paragraph.
A test compound (details see list below) was incubated with CYP2A6 in the presence of a cytochrome P450 reductase. CYP2A6 and P450 reductase were employed in form of microsomes (BD Biosciences Gentest, USA). Microsomes were used which contained 2 pmoles CYP2A6 and an amount of NADPH-P450 reductase corresponding to cytochrome c reductase activity of 87 nmole/(min×mg protein). […] The concentration of the standard substrate coumarin was 0.003 mM.
The samples were analysed spectrofluorometrically according to the procedure described in Example 28.

Compound: CC/C=C\CCn1ccnc1 [Compound ID 23, (Z)-1-(hex-3-enyl)-1H-imidazole]
- IC50 (CYP2A13): 3.4 µM
- IC50 (Human CYP2B6): 2.2 µM
- IC50 (CYP2A6): 7 µM

Compound: C=CCCCCn1ccnc1 [Compound ID 41, 1-(hex-5-enyl)-1H-imidazole]
- IC50 (CYP2A13): 5.9 µM
- IC50 (Human CYP2B6): 1.9 µM

Compound: c1ncc2c(n1)CCCCCCCCCC2 [Compound ID 1, 5,6,7,8,9,10,11,12,13,14-decahydrocyclododeca[d]pyrimidine]
- IC50 (CYP2A13): 0.3 µM
- IC50 (Human CYP2B6): 2.7 µM
- IC50 (CYP2A6): 9 µM

Continued, values first:

- IC50 (CYP2A13): 10.2 µM
- IC50 (Human CYP2B6): 0.6 µM
Compound: C=CCCCCCc1cnccn1 [Compound ID 57, 2-(hept-6-enyl)pyrazine]

- IC50 (CYP2A13; read-out: CYP2A13 inhibitor activity IC50, substrate coumarin 0.006 mM, 60 min at 37° C.): 2.1 µM
- IC50 (Human CYP2B6): 0.6 µM
Compound: CCCCCCn1ccnc1 [Compound ID 16, 1-hexyl-1H-imidazole]

- IC50 (CYP2A13): 2 µM
- IC50 (Human CYP2B6): 5.4 µM
- IC50 (CYP2A6): 53 µM
Compound: c1nc2c(o1)CCCCCCCCCC2 [Compound ID 15, 4,5,6,7,8,9,10,11,12,13-decahydrocyclododeca[d]oxazole]

- IC50 (CYP2A13): 6.4 µM
- IC50 (Human CYP2B6): 0.1 µM
- IC50 (CYP2A6): 6 µM
Compound: CC(C)=CCC/C(C)=C\Cn1ccnc1 [Compound ID 44, 1-(3,7-dimethylocta-2,6-dienyl)-1H-imidazole]
